In data set [1] the test system is recombinant lipase (Bacillus sphaericus 205y lipase expressed in E. coli). The data set can be described thus: Effect of organic solvents on crude recombinant lipase activity (organic solvent-tolerant test). In kind it is biochemical. The following applies: for Relative activity (%) at concentration of 25%: 25% (v/v) solvent (1 ml solvent/3 ml crude enzyme), 30 min, 37° C., shaking, relative to non-solvent control. On the procedure:
The mixture is allowed to stand still for 20-30 seconds until the aqueous phase was sedimented clearly from the solution of isooctane and fatty acids. The reaction mixture contains 0.01 M calcium chloride (20 μl), olive oil emulsion (2.5 ml) and crude enzyme (1 ml). The reaction mixture was continuously agitated by using a horizontal shaker at 200 rpm at 37° C. The reaction was stopped by adding isooctane (5 ml) to dissolve free fatty acids produced by olive oil hydrolysis. Lipase activity was determined by measuring the free fatty acids from the standard curve of free fatty acids. One unit of lipase activity was defined as 1.0 μmol of fatty acid liberated per min per ml.
After induction with IPTG (1 mM), 10 ml of cells were pelleted by centrifugation at 10,000 gram and resuspended in 10 ml of Phosphate buffer (PBS). The cells were mixed thoroughly, placed on ice, and sonicated with Branson sonicater (2 min, 30% duty cycle). The broken cells were pelleted and the supernantant were used in determining the lipase activity and organic solvent tolerant. Various organic solvents were tested at the concentration of 25% (v/v) by addition of 1 ml of organic solvent to 3 ml of crude enzyme. The reaction mixture was incubated for 30 minutes at 37° C. under shaking condition (200 rpm). Remaining activity was assayed under standard condition and expressed as the percent of the control value. For control, distilled water was added instead of solvent. The organic solvents used were hexane, ρ-xylene, benzene, dimethy sulfoxide, acetonitrile and hexadecane. Each experiment was done in triplicate.
Table 4: Effect of different organic solvents on crude recombinant lipase activity. Three milliliters of cell-free supernatant of the culture was incubated with 1 ml of organic solvents at 37° C. with shaking. The remaining lipase activity relative to the non-solvent containing control was measured.

A further data set relates to isolate 205y. Description: Growth of isolate 205y in different organic solvents and concentrations. In kind it is cell-based, Bacillus sphaericus 205y. The arrangement: Growth of isolate 205y: key to the marks not given beside the values. As to conditions: for Growth of isolate 205y: growth visually determined. As to the method:
The Bacillus sphaericus 205y culture could be obtained from Enzyme and Microbial Technology Research Department of Biochemistry and Microbiology, Faculty of Science and Environmental Studies, University Putra Malaysia. One gram of soil is resuspended in 10 ml basal mineral […] supplemented with selected hydrocarbon (0.1% v/v). The basal media contained (w/v) K2HPO4 0.5%, NH4Cl (1.0%), Na2SO4 (2%), KNO3 (2%), MgSO4.7H2O (0.2%).
Selected hydrocarbons would either be benzene, toluene or mixture of both as their sole carbon and energy source. Pure isolates were prescreened in media spiked with 1% v/v hydrocarbon. Isolates were grouped into groups of good, moderate, acceptable and negative, based on the turbidity of the media (Inoue et al., 1989). Non-inoculated controls were also used to ensure that the turbidity is due to growth.

The conditions of data set [2]: cited from earlier work.
Data set [3] concerns lipase secreted by Bacillus sphaericus 205y. Description: Effect of organic solvents on crude lipase secreted by Bacillus sphaericus 205y. In kind it is biochemical. As to conditions: 25% (v/v) solvent. On the procedure: Lipase activity is measured with olive oil emulsion as substrate (Kwon and Rhee. 1991). All reactions were performed at 37° C. for 15 minutes at shaking condition of 200 rpm unless otherwise indicated. One unit of lipase activity was defined as 1.0 μmol of fatty acid liberated per min per ml.
Bacillus sphaericus 205y is grown at 37° C. in M3 medium. The culture medium (24 h) is […] (0.25 μm pore size) as crude enzyme. Investigation of various effects of organic solvents at the concentration of 25% (v/v) (1 ml of organic solvent/3 ml of crude enzyme) on the lipase activity was done. The reaction mixture was incubated for 30 minutes at 37° C. under shaking condition (200 rpm).

In the case of `CC#N` [Acetonitrile], in data set [1], the “Relative activity (%) at concentration of 25%” value (“Relative activity (%)” below) was determined as 0%.
Regarding `c1ccccc1` [Benzene], the “Growth of isolate 205y” value with isolate 205y (Hydrocarbon 1% (v/v)) is given as “++”; with isolate 205y (Hydrocarbon 5% (v/v)) it was “+++”; with isolate 205y (Hydrocarbon 10% (v/v)), “+++”; with isolate 205y (Hydrocarbon 25% (v/v)), “++”; in the data set with isolate 205y (Hydrocarbon 50% (v/v)), “++”; in the data set on isolate 205y (Hydrocarbon 75% (v/v)), “++”.
The term Log P denotes the decadic logarithm of the partition coefficient of the neutral form, usually between octanol and water. As to `C[S+](C)[O-]` [Dimethyl sulfoxide], the “Relative activity (%)” value in data set [1] was 10%. For the same molecule, the lipophilicity (Log P) in data set [2] is on record as −1.22.
With `CCCCCCCCCCCCCCCC` [Hexadecane], the “Effect on recombinant lipase activity (in words)” value in data set [1] (25% (v/v) solvent) is on record as “completely inhibited”. Also, the “Relative activity (%)” value in data set [1] was found to be 0%.
Regarding `Cc1ccccc1` [Toluene], the “Growth of isolate 205y” value in the data set on isolate 205y (Hydrocarbon 1% (v/v)) is “+++”; with isolate 205y (Hydrocarbon 5% (v/v)), “+++”; in the data set with isolate 205y (Hydrocarbon 10% (v/v)) it was “++”; with isolate 205y (Hydrocarbon 25% (v/v)) it was “++”; in the data set with isolate 205y (Hydrocarbon 50% (v/v)), “++”; in the data set on isolate 205y (Hydrocarbon 75% (v/v)) it was “++”.
For the molecule `CCCCCC` [n-Hexane], in data set [1] (25% (v/v) solvent), the “Effect on recombinant lipase activity (in words)” value is listed as “slightly activated” and the “Lipase activity enhanced (fold of control)” value came to 1.10 folds. In addition, the “Relative activity (%)” value in data set [1] stood at 110%. Also, the “Stability of lipase secreted by Bacillus sphaericus 205y in solvent (in words)” value in data set [3] is given as “stable”. Besides, the “Log P” value in data set [2] was 3.6.
For the molecule `Cc1ccc(C)cc1` [ρ-Xylene], the “Relative activity (%)” value in data set [1] worked out at 90%. In addition, the “Growth of 205y in solvent (in words)” value in the data set with isolate 205y is given as “good growth”. Also, the “Growth of isolate 205y” value is “++” with isolate 205y (Hydrocarbon 1% (v/v)); “+++” in the data set on isolate 205y (Hydrocarbon 5% (v/v)); “+++” with isolate 205y (Hydrocarbon 10% (v/v)); “+++” in the data set on isolate 205y (Hydrocarbon 25% (v/v)); “++” in the data set on isolate 205y (Hydrocarbon 50% (v/v)); “++” with isolate 205y (Hydrocarbon 75% (v/v)). Further, in data set [3], the “Stability of lipase secreted by Bacillus sphaericus 205y in solvent (in words)” value was “stable”.

These data come from patent publication US20050260737A1, “Novel lipase gene from Bacillus sphaericus 205y” (priority 2004, published 2005).
